Experimental data as given in ChEMBL document CHEMBL1201862, “PubChem BioAssay data set” (2004).
Active and inactive are the calls of the source.

Assays:
Cytochrome P450 2D6 = Cytochrome P450 2D6 (Homo sapiens, UniProt P10635); experiment: qHTS Assay for Inhibitors and Substrates of Cytochrome P450 2D6. [Related pubchem assays: 410 ]; type: ADME; settings: read-out: Potency
Streptococcus = experiment: GAS UMAA2166 growth inhibition – luminescence, BacTiterGlo, counter-screen for streptokinase expression inhibitor project, dose response (AID 1915); type: functional, organism-based;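 also: potency for reduction of bacterial viability or growth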
INS1 = experiment: INS-1E survival protection against cytokine death – cell-based, luminescence, retest, dose response (AID 449756); type: functional; settings: Rattus norvegicus;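 also: cell death triggered by IL-1 beta plus TNF-alpha plus IFN-gamma mixture; protective hits raise ATP signal compared with cytokine alone wells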
[1] = biological target: Serine/threonine-protein phosphatase (Homo sapiens, UniProt Q9BPW0); experiment: Counterscreen for inhibitors of PP1: fluorescence-based biochemical high throughput dose response assay to identify inhibitors of Protein Phosphatase 5 (PP5). [Related pubchem assays: 2034 (Summary (PP5 inhibitors)), 1987 (PP5 inhibitors in singlate), 2235 (PP1 inhibitors in singlate)]
[2] = system: Streptococcus sp. 'group A'; experiment: Streptococcus pyogenes SK(-)GAS viability under kanamycin – luminescence, BacTiterGlo, confirmation, counter-screen for streptokinase expression inhibitor project, dose response (AID 1900); type: functional, organism-based
Streptokinase A = biological target: T1, Streptokinase A (Streptococcus pyogenes serotype M1, UniProt P10520); experiment: viability-normalized secreted streptokinase activity reduction – plasminogen activation absorbance, OD405, dose response (AID 1914); type: functional, Streptococcus pyogenes M1 GAS;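 also: secreted streptokinase activity via plasminogen activation per viability signal from cell pellet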
T1 sequence (P10520 whole entry): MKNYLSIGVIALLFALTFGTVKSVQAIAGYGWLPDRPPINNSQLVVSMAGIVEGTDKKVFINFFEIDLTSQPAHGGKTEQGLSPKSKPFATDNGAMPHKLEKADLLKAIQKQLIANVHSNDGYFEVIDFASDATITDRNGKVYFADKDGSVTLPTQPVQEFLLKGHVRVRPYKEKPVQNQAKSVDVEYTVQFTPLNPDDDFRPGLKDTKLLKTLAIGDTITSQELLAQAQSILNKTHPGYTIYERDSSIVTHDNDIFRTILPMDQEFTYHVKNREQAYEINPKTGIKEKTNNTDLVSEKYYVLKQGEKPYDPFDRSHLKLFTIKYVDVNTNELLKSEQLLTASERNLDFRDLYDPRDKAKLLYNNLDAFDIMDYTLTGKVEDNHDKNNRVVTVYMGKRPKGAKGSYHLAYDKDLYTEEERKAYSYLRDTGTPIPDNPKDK

[3] = NIH3T3 cell viability loss – ATP luminescence, mouse fibroblasts, counter-screen, dose response (AID 2010); type: functional, cell-based;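 also: cells exposed to compound for about 90 hours before reading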
[4] = Trypanosoma cruzi growth suppression in host cells – NIH3T3 host cells, beta-gal luminescence, confirmation (AID 2044); type: functional, cell-based;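 also: intracellular parasites grown in NIH/3T3 mouse fibroblasts as host cells; luminescent beta-galactosidase reporter signal from transgenic T. cruzi replicating inside host cells; inhibitors lower the luminescence signal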
[5] = biological target: Serine/threonine-protein phosphatase PP1-alpha catalytic subunit (Homo sapiens, UniProt P62136); experiment: inhibition of protein phosphatase 1 activity – biochemical, fluorescence, dose response (AID 2403);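 also: phosphatase turnover of OMFP into fluorescent 3-O-methylfluorescein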
[6] = biological target: G-protein coupled receptor 55 (Homo sapiens, UniProt Q9Y2T6); experiment: selective activators of receptor GPR55 – imaging, U2OS cells, beta-arrestin-GFP redistribution, primary screen (AID 1961); type: functional
Sequence of G-protein coupled receptor 55 (Q9Y2T6 whole entry): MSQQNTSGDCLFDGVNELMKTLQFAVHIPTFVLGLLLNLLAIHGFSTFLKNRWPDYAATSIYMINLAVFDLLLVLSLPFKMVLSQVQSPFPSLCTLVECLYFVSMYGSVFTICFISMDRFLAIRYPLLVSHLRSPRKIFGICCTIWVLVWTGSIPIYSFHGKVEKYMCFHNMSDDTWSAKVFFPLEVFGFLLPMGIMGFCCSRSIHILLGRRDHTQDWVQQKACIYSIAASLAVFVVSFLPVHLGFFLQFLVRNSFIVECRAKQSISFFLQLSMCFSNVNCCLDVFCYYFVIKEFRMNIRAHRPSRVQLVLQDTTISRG

H9c2 = experiment: cells; type: functional, cell-based; settings: Rattus norvegicus, H9c2, Myocardium
[7] = biological target: Voltage-dependent T-type calcium channel subunit alpha-1H (Homo sapiens, UniProt O95180); type: functional;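 also: channel activity triggered by adding a high calcium stimulation buffer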
Sequence of Voltage-dependent T-type calcium channel subunit alpha-1H (O95180 whole entry, the tested form may be a part): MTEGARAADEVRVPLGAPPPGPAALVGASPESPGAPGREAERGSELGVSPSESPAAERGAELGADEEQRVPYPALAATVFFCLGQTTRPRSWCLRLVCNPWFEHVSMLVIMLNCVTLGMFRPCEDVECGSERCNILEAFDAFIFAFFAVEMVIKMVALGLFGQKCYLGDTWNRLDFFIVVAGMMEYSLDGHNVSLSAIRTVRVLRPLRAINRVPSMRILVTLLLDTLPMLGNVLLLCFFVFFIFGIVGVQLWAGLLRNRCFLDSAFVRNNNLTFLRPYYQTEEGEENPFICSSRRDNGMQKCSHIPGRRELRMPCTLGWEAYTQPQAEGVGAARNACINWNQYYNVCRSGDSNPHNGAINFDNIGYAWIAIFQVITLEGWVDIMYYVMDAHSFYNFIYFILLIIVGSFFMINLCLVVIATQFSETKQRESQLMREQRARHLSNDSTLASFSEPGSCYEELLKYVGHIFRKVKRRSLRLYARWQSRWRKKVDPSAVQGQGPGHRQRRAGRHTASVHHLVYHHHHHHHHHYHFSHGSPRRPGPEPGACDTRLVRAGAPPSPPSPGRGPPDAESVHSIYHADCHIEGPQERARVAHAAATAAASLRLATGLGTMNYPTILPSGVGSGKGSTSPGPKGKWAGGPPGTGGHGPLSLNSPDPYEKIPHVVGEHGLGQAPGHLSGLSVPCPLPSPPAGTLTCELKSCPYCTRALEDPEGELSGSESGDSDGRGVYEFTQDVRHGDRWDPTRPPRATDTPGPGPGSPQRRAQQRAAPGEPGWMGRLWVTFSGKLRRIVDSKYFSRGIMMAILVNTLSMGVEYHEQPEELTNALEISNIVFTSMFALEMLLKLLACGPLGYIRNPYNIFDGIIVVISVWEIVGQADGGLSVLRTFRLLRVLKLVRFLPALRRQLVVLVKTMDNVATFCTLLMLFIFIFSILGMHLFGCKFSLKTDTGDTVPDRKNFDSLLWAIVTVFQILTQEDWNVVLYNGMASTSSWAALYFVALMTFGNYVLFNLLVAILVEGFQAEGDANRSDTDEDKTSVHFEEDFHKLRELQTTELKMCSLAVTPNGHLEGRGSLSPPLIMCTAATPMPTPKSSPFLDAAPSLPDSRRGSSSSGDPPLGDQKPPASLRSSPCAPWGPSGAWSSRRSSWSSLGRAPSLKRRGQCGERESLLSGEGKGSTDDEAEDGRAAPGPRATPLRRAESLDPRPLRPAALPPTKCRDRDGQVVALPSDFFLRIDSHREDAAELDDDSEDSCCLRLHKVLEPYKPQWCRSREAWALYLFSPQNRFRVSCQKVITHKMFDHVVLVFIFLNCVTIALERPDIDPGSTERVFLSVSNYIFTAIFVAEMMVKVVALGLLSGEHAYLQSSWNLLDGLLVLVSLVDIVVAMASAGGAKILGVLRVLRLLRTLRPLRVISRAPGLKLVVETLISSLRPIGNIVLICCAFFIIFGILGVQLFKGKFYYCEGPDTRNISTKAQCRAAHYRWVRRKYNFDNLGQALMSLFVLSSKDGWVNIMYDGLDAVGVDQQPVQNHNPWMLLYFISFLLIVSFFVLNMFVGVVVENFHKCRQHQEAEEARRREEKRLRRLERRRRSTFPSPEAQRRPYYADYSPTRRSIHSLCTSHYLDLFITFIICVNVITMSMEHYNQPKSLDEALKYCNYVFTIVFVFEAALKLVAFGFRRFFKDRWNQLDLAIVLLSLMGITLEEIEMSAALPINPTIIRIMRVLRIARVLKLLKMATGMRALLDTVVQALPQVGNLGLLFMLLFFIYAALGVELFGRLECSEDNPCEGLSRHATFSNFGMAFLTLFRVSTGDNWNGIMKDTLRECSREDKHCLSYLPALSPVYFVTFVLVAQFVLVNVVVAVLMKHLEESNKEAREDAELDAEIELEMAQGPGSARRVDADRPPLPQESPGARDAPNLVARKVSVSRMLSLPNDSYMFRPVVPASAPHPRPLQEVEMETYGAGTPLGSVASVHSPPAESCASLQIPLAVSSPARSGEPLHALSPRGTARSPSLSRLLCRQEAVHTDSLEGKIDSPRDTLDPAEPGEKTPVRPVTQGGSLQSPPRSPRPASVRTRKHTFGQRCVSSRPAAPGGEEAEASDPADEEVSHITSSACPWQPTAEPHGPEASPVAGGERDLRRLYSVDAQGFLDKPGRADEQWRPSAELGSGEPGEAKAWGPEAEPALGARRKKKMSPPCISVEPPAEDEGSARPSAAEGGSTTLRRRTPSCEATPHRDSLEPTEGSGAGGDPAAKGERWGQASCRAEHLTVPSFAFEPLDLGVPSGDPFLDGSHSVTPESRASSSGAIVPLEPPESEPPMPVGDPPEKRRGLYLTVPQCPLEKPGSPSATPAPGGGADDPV

[8] = biological target: T2, Polyadenylate-binding protein 1 (Homo sapiens, UniProt P11940); experiment: MLLE domain peptide-binding blockers, IC50 – biochemical, fluorescence polarization, FITC-PAM2 peptide, dose response (AID 602259); type: functional; settings: read-out: IC50_Mean
T2 sequence (P11940 whole entry, the tested form may be a part): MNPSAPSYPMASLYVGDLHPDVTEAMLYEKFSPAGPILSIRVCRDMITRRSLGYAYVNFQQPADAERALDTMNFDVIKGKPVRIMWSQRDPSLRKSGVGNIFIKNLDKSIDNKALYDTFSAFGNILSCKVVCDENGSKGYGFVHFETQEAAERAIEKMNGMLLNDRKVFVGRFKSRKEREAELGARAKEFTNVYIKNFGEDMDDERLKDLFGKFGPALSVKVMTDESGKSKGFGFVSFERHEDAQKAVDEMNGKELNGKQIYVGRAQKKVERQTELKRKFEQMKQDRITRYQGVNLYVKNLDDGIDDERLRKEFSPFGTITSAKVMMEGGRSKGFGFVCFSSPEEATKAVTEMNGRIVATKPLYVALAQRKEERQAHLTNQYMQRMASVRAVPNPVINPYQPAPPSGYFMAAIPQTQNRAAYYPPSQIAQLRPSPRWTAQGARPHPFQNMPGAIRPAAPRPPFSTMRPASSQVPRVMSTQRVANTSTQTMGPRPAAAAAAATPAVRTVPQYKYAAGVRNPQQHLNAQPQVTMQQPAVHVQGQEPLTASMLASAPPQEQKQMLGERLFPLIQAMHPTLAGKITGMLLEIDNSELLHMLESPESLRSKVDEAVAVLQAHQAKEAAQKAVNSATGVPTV

[9] = biological target: Female germline-specific tumor suppressor gld-1 (Caenorhabditis elegans, UniProt Q17339); experiment: blockers of GLD-1/TGE RNA complex formation – biochemical, fluorescence polarization, C. elegans, dose response (AID 2802);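 also: fluorescence polarization of labeled TGE RNA bound by purified gld-1 protein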
Sequence of Female germline-specific tumor suppressor gld-1 (Q17339 whole entry): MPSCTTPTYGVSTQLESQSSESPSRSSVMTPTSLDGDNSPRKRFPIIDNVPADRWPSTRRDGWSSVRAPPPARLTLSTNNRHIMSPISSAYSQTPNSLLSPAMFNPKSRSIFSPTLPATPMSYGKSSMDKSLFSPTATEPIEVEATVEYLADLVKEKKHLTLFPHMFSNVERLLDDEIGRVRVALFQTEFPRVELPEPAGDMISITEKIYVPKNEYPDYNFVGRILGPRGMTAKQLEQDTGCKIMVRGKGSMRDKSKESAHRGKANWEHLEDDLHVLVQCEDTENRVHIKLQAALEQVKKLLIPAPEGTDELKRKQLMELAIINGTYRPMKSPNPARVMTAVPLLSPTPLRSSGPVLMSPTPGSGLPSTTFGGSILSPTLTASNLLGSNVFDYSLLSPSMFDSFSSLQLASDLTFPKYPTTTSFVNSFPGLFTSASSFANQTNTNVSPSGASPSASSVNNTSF

[10] = biological target: T2, Polyadenylate-binding protein 1; experiment: MLLE binding blockers, Cy5 peptide tracer – biochemical, fluorescence polarization, Cy5-PAM2 peptide, secondary, miRNA deadenylation inhibitor project, dose response (AID 602260); type: functional; settings: read-out: IC50_Mean
Protein Rev = Protein Rev (Human immunodeficiency virus type 1 group M subtype B (isolate HXB2)(HIV-1), UniProt P04618); experiment: blockers of HIV Rev/RRE RNA complex – biochemical, fluorescence polarization, HIV-1, dose response (AID 434976); set-up: species or system Human immunodeficiency virus 1
Sequence of Protein Rev (P04618 whole entry): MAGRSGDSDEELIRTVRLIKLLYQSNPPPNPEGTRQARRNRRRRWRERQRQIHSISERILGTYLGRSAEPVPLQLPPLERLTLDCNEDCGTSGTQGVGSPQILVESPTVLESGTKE

[11] = biological target: Glyceraldehyde-3-phosphate dehydrogenase (Homo sapiens, UniProt P04406)
Sequence of Glyceraldehyde-3-phosphate dehydrogenase (P04406 whole entry): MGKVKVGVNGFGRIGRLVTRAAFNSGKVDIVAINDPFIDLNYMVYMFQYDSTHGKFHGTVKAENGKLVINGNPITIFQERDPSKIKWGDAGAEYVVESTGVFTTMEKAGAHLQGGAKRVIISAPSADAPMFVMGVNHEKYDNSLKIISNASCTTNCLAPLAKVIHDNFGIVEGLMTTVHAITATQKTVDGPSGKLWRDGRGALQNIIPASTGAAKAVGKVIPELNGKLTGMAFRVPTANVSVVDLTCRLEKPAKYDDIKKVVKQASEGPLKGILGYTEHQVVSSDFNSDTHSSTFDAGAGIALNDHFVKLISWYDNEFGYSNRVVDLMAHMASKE

[12] = biological target: T3, Dual specificity protein phosphatase 6 (Rattus norvegicus, UniProt Q64346)
T3 sequence (Q64346 whole entry): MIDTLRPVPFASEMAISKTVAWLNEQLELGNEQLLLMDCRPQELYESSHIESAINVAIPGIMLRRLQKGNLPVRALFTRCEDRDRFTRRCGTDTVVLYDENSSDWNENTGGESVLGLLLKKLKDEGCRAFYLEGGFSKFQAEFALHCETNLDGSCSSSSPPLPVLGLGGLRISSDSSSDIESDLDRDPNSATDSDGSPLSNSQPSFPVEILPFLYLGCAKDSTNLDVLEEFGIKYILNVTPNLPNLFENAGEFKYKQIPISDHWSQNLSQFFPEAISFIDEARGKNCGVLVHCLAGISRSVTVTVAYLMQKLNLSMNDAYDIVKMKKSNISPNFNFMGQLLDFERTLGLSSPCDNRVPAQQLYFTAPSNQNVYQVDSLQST

[13] = biological target: T4, Tyrosine-protein phosphatase non-receptor type 7 (Homo sapiens, UniProt P35236); type: functional
T4 sequence (P35236 whole entry): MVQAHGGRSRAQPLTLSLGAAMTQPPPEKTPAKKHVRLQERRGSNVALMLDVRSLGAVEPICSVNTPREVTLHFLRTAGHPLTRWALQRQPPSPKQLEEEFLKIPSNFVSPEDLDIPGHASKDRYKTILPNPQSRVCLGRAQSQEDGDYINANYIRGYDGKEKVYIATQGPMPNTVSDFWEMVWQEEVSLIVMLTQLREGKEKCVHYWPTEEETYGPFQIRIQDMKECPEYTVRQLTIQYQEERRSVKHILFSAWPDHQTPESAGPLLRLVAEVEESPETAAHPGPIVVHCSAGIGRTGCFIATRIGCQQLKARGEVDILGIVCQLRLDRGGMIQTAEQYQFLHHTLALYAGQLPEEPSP

[14] = biological target: T3, Dual specificity protein phosphatase 6; type: functional
Cytochrome P450 2C19 = Cytochrome P450 2C19 (Homo sapiens, UniProt P33261); experiment: qHTS Assay for Inhibitors and Substrates of Cytochrome P450 2C19. [Related pubchem assays: 410 ]; type: ADME; settings: read-out: Potency
[15] = biological target: Lysosomal acid glucosylceramidase (Homo sapiens, UniProt P04062); experiment: Dose response cell-based high throughput screening assay to identify enhancers of beta-glucosidase activity. [Related pubchem assays: 784 ]; type: functional
Sequence of Lysosomal acid glucosylceramidase (P04062 whole entry): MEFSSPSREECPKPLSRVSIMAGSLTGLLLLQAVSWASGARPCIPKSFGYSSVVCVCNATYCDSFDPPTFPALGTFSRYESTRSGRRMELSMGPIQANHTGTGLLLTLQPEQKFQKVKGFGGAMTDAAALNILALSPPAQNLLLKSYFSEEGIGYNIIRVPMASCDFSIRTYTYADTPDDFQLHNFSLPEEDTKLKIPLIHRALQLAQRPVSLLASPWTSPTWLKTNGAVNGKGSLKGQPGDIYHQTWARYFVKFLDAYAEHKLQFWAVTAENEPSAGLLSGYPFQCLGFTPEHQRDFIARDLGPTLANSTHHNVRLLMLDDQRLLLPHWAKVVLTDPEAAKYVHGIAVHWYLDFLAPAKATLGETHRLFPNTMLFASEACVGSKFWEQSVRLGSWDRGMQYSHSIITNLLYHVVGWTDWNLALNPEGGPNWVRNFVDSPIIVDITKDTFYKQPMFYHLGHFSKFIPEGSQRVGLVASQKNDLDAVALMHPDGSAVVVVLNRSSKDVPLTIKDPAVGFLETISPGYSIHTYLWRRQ

[16] = A cytotoxicity screen of small molecule inhibitors of the PhoP region in Salmonella typhi identified in the primary screen. [Related pubchem assays: 1850, 1864, 1985 ]; type: functional
[17] = biological target: T5, RNA-binding protein pos-1 (Caenorhabditis elegans, UniProt G5EF15); experiment: disruptors of C. elegans POS-1 RNA interaction – biochemical, fluorescence polarization, dose response (AID 1964);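 also: purified POS-1 fused to maltose binding protein made in E. coli; potency of compounds blocking POS-1 binding to fluorescent RNA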
T5 sequence (G5EF15 whole entry): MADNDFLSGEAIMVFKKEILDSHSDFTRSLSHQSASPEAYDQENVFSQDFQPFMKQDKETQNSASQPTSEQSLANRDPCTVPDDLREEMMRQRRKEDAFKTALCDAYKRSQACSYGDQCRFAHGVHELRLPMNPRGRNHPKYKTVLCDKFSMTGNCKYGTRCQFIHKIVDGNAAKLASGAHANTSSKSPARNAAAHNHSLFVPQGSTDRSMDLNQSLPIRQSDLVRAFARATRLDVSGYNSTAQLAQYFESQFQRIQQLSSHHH

[18] = luciferase reporter signal reduction – luminescence, H4-C neuroglioblastoma cells, dose response (AID 2458); type: functional, cell-based;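 also: H4 neuroglioblastoma cells stably carrying a luciferase reporter gene fusion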
[19] = biological target: T6, Zinc finger protein mex-5 (Caenorhabditis elegans, UniProt Q9XUB2); experiment: potency of MEX-5 RNA-binding blockers – biochemical, C. elegans, fluorescence polarization, dose response (AID 1960)
T6 sequence (Q9XUB2 whole entry): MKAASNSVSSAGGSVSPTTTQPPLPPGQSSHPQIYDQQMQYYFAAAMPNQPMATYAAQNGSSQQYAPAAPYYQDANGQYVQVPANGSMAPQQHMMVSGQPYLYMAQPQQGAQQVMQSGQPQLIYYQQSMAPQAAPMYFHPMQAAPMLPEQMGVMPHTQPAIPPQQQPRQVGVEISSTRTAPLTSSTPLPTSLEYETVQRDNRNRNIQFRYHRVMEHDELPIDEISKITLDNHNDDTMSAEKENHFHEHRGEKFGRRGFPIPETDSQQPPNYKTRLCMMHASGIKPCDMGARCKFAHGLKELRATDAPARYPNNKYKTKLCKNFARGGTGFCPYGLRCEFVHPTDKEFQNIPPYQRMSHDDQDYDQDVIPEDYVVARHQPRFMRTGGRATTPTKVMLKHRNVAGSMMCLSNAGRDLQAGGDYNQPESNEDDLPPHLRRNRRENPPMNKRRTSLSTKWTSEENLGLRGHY

cells = type: functional, cell-based
[20] = alpha-synuclein stem-loop translation blockers – luminescence, H4 neuroglioblastoma cells, dose confirmation, confirmation (AID 2454); type: functional, cell-based;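 also: H4 neuroglioblastoma cells carrying an alpha-synuclein 5'UTR luciferase reporter; potency for inhibition of the luciferase signal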
[21] = biological target: T7, Heat shock factor protein 1 (Mus musculus, UniProt P38532); experiment: decrease of HSF1-responsive luciferase luminescence – cell-based, NIH3T3, dose retest, confirmation (AID 2382); type: functional;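 also: NIH3T3 fibroblasts with HSF1-driven luciferase reporter stressed by proteasome inhibitor MG132; luminescence from HSF1-driven luciferase expression after 8 hours of MG132 stress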
T7 sequence (P38532 whole entry): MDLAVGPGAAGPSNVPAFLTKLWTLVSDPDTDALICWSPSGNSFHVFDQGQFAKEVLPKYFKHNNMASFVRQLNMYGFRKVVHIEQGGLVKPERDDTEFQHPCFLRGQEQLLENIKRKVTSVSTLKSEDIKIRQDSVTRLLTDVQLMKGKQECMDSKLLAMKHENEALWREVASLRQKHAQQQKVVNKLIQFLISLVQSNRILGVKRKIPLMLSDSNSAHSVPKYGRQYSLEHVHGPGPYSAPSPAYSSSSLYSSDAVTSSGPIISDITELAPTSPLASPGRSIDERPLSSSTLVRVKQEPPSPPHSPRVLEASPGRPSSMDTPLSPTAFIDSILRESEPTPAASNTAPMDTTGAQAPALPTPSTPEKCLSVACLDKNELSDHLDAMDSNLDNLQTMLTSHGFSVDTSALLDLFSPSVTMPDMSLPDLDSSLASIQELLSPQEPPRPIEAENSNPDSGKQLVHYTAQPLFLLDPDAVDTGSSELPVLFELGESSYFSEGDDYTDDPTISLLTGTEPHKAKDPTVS

[22] = alpha-synuclein stem-loop luciferase translation blockers – H4 neuroglioma cells, luminescence, confirmation (AID 1988); type: functional, cell-based
[23] = biological target: DNA dC->dU-editing enzyme APOBEC-3G (Homo sapiens, UniProt Q9HC16); experiment: Dose Response confirmation of small molecule APOBEC3G DNA Deaminase Inhibitors via a fluorescence-based single-stranded DNA deaminase assay. [Related pubchem assays (depositor defined):AID493012, AID493028]; type: functional
[24] = biological target: DNA dC->dU-editing enzyme APOBEC-3A (Homo sapiens, UniProt P31941); experiment: A3A deaminase inhibition for selectivity – biochemical, dose response (AID 504722); type: functional
Sequence of DNA dC->dU-editing enzyme APOBEC-3A (P31941 whole entry): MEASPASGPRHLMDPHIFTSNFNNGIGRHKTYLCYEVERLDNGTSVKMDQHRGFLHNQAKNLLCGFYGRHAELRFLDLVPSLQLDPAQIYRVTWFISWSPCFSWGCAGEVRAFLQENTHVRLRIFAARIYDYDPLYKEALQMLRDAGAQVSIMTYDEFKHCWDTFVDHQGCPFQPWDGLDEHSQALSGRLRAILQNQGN

## CC[C@@]12CCCN3CC[C@@]4(c5ccc(OC)c(O)c5N(C(C)=O)[C@H]4CC1)[C@H]32
Cytochrome P450 2D6
  AC50: 20 µM (inconclusive)

## CCOC(=O)c1cnc(-n2nc(C)cc2C)nc1NCc1ccccc1
Streptococcus
  EC50: 9.69 µM (active)
INS1
  AC50: 5.4 µM (active)
[1]
  IC50: > 67 µM (not active)
[2]
  EC50: 8.49 µM (active)
Streptokinase A
  EC50: > 150 µM (not active)
[3]
  EC50: > 60 µM (not active)
[4]
  EC50: 2.09 µM (active)
[5]
  IC50: 5.83 µM (active)

## COc1cc(C(CC(=O)N2CCCC2)c2c(OC)cc(OC)c3c(-c4ccccc4)cc(=O)oc23)cc(OC)c1OC (configuration not stated)
[6]
  EC50: 6.57 µM (active)

## CCC(=O)N1CCN(c2ccccc2NC(=O)COc2cc(C)ccc2C(C)C)CC1
H9c2
  IC50: > 79 µM (inactive)
[7]
  EC50: 2.97 µM (active)

## O=c1[nH]c2cc3ccccc3cc2nc1C(F)(F)F
[8]
  IC50: 46.2 µM (inactive)
[9]
  IC50: 2.9 µM (active)
[10]
  IC50: > 66 µM (inactive)
Protein Rev
  IC50: > 75.5 µM (not active)

## COC(=O)c1cc2c(C)cc3ccc(C)cn3c-2c1C(=O)OC
[9]
  IC50: > 2.21 µM (active)
Protein Rev
  IC50: 12.2 µM (not active)

## CCCn1c(=O)nc(NCc2ccc(C)cc2)[nH]c1=O
[11]
  IC50: > 100 µM (not active)
[12]
  IC50: > 100 µM (inactive)
[13]
  IC50: > 100 µM (not active)
[14]
  IC50: > 100 µM (inactive)

## C=CCCC/C=C(/C)C(OCc1ccc(OC)cc1)C(CC/C=C(\C)C(N)=O)OC (configuration not stated)
Cytochrome P450 2C19
  AC50: 2.51 µM (inconclusive)
Cytochrome P450 2D6
  AC50: 3.16 µM (inconclusive)

## CCOC(=O)C1Nc2c(OC)cccc2C2OCCC12 (configuration not stated)
[11]
  IC50: > 100 µM (not active)
[12]
  IC50: > 100 µM (inactive)
[13]
  IC50: > 100 µM (not active)
[14]
  IC50: > 100 µM (inactive)

## CCc1ccc(Nc2n[n+](-c3ccccc3)c(-c3cc(OC)c(OC)cc3Br)s2)cc1
[6]
  EC50: 21.2 µM (inactive)

## C=CCNC(=O)CCCOc1cc(C)ccc1C
[15]
  EC50: > 50 µM (not active)

## CCN(C1CCCCC1)S(=O)(=O)c1ccc(OC)c(C)c1
[16]
  EC50: > 50 µM (active)
[7]
  EC50: 3.88 µM (active)

## Cc1cc(/C=c2/sc3nc4ccccc4n3c2=O)c(C)n1-c1ccccn1
[17]
  EC50: > 300 µM (not active)
[18]
  EC50: 84 nM (active)
[19]
  EC50: > 300 µM (not active)
cells
  EC50: 76 nM (active)
[20]
  EC50: 92 nM (active)
[21]
  EC50: < 160 nM (active)
[22]
  EC50: < 100 nM (active)

## Cc1ccsc1/C=N/n1c(S)nnc1-c1ccco1
[23]
  IC50: 1.79 µM (active)
[24]
  IC50: > 100 µM (inactive)

## C/C(=N\O)c1ccc2c3ccccc3n(C)c2c1
[15]
  EC50: > 50 µM (not active)
